According to ChEMBL document CHEMBL1201862, “PubChem BioAssay data set” (2004):
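Tested at 5 concentrations; 48 h exposure; 96-well plates; endpoints linearly interpolated, else capped at highest concentration. GI50: concentration for 50% inhibition of growth.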 Activity calls are given as the source filed them. Cut-off read from the data, not from the text of the source: active = GI50 up to about 1.1 µM and inactive = higher.

Experiments:
Assay in all cases: NCI tumour cell line growth inhibition, 48 h
NCI-H226 = tested on: NCI-H226
SF-539 = tested on: SF-539
EKVX = tested on: EKVX
SR = tested on: SR
OVCAR-5 = tested on: OVCAR-5
IGROV-1 = tested on: IGROV-1
COLO 205 = tested on: COLO 205
M14 = tested on: M14
MOLT-4 = tested on: MOLT-4
SNB-75 = tested on: SNB-75
KM12 = tested on: KM12
SK-MEL-5 = tested on: SK-MEL-5
ACHN = tested on: ACHN
K562 = tested on: K562
HOP-92 = tested on: HOP-92
CCRF-CEM = tested on: CCRF-CEM
KM-20L2 = tested on: KM-20L2
SK-OV-3 = tested on: SK-OV-3
SN12C = tested on: SN12C
RPMI-8226 = tested on: RPMI-8226
NCI-H23 = tested on: NCI-H23
M19-MEL = tested on: M19-MEL
SW-620 = tested on: SW-620
LXFL 529 = tested on: LXFL 529
OVCAR-8 = tested on: OVCAR-8
HOP-62 = tested on: HOP-62
RXF 631 = tested on: RXF 631
HCT-15 = tested on: HCT-15
RXF 393 = tested on: RXF 393
UO-31 = tested on: UO-31
TK-10 = tested on: TK-10
DMS-273 = tested on: DMS-273
SNB-78 = tested on: SNB-78
LOX IMVI = tested on: LOX IMVI
DLD-1 = tested on: DLD-1
HCT-116 = tested on: HCT-116
SF-295 = tested on: SF-295
CAKI-1 = tested on: CAKI-1
UACC-257 = tested on: UACC-257
NCI-H522 = tested on: NCI-H522
SNB-19 = tested on: SNB-19
NCI-H460 = tested on: NCI-H460
HL-60 = tested on: HL-60
OVCAR-4 = tested on: OVCAR-4
OVCAR-3 = tested on: OVCAR-3
UACC-62 = tested on: UACC-62
SK-MEL-2 = tested on: SK-MEL-2
HT-29 = tested on: HT-29
Malme-3M = tested on: Malme-3M
U-251 = tested on: U-251
786-0 = tested on: 786-0
DMS-114 = tested on: DMS-114
A549 = tested on: A549
HCC 2998 = tested on: HCC 2998
SK-MEL-28 = tested on: SK-MEL-28
XF498 = tested on: XF498
HOP-18 = tested on: HOP-18
SF-268 = tested on: SF-268
A498 = tested on: A498

For `CCOC(=O)CCn1cnc(N)n1`, which GI50 (NCI-H226) is on record?
The GI50 was > 100 µM (inactive).

And the GI50 (SF-539)?
Its GI50 is > 100 µM (inactive).

What about the GI50 (EKVX) of the same compound?
Its GI50 is > 100 µM (inactive).

What about the GI50 (SR) of the same compound?
Its GI50 is > 100 µM (inactive).

What about the GI50 (OVCAR-5) of the same compound?
The GI50 was > 100 µM (inactive).

And the GI50 (IGROV-1)?
The GI50 was > 100 µM (inactive).

What about the GI50 (COLO 205) of the same compound?
The GI50 was > 100 µM (inactive).

And the GI50 (M14)?
The GI50 was > 100 µM (inactive).

And the GI50 (MOLT-4)?
The GI50 was > 100 µM (inactive).

What about the GI50 (SNB-75) of the same compound?
Its GI50 is > 100 µM (inactive).

And the GI50 (KM12)?
Its GI50 is > 100 µM (inactive).

What about the GI50 (SK-MEL-5) of the same compound?
The GI50 was > 100 µM (inactive).

And the GI50 (ACHN)?
The GI50 was > 100 µM (inactive).

And the GI50 (K562)?
The GI50 was > 100 µM (inactive).

What about the GI50 (HOP-92) of the same compound?
The GI50 was > 100 µM (inactive).

And the GI50 (CCRF-CEM)?
The GI50 was > 100 µM (inactive).

And the GI50 (KM-20L2)?
The GI50 was > 100 µM (inactive).

What about the GI50 (SK-OV-3) of the same compound?
Its GI50 is > 100 µM (inactive).

And the GI50 (SN12C)?
Its GI50 is > 100 µM (inactive).

And the GI50 (RPMI-8226)?
The GI50 was > 100 µM (inactive).

And the GI50 (NCI-H23)?
Its GI50 is > 100 µM (inactive).

And the GI50 (M19-MEL)?
The GI50 was > 100 µM (inactive).

What about the GI50 (SW-620) of the same compound?
The GI50 was > 100 µM (inactive).

What about the GI50 (LXFL 529) of the same compound?
The GI50 was > 100 µM (inactive).

And the GI50 (OVCAR-8)?
Its GI50 is > 100 µM (inactive).

What about the GI50 (HOP-62) of the same compound?
The GI50 was > 100 µM (inactive).

And the GI50 (RXF 631)?
The GI50 was > 100 µM (inactive).

And the GI50 (HCT-15)?
Its GI50 is over 100 µM.

What about the GI50 (RXF 393) of the same compound?
Its GI50 is > 100 µM (inactive).

And the GI50 (UO-31)?
Its GI50 is > 100 µM (inactive).

And the GI50 (TK-10)?
The GI50 was > 100 µM (inactive).

And the GI50 (DMS-273)?
The GI50 was > 100 µM (inactive).

And the GI50 (SNB-78)?
The GI50 was > 100 µM (inactive).

And the GI50 (LOX IMVI)?
Its GI50 is > 100 µM (inactive).

What about the GI50 (DLD-1) of the same compound?
Its GI50 is > 100 µM (inactive).

And the GI50 (HCT-116)?
Its GI50 is > 100 µM (inactive).

And the GI50 (SF-295)?
Its GI50 is > 100 µM (inactive).

What about the GI50 (CAKI-1) of the same compound?
Its GI50 is > 100 µM (inactive).

And the GI50 (UACC-257)?
Its GI50 is > 100 µM (inactive).

What about the GI50 (NCI-H522) of the same compound?
Its GI50 is > 100 µM (inactive).

What about the GI50 (SNB-19) of the same compound?
The GI50 was > 100 µM (inactive).

And the GI50 (NCI-H460)?
Its GI50 is > 100 µM (inactive).

And the GI50 (HL-60)?
Its GI50 is > 100 µM (inactive).

What about the GI50 (OVCAR-4) of the same compound?
The GI50 was > 100 µM (inactive).

And the GI50 (OVCAR-3)?
The GI50 was > 100 µM (inactive).

And the GI50 (UACC-62)?
The GI50 was > 100 µM (inactive).

And the GI50 (SK-MEL-2)?
Its GI50 is > 100 µM (inactive).

And the GI50 (HT-29)?
Its GI50 is > 100 µM (inactive).

What about the GI50 (Malme-3M) of the same compound?
Its GI50 is > 100 µM (inactive).

What about the GI50 (U-251) of the same compound?
Its GI50 is > 100 µM (inactive).

And the GI50 (786-0)?
Its GI50 is > 100 µM (inactive).

And the GI50 (DMS-114)?
The GI50 was > 100 µM (inactive).

And the GI50 (A549)?
Its GI50 is > 100 µM (inactive).

What about the GI50 (HCC 2998) of the same compound?
Its GI50 is > 100 µM (inactive).

What about the GI50 (SK-MEL-28) of the same compound?
Its GI50 is > 100 µM (inactive).

What about the GI50 (XF498) of the same compound?
Its GI50 is > 100 µM (inactive).

And the GI50 (HOP-18)?
Its GI50 is > 100 µM (inactive).

What does the source list for `CCOC(=O)N1C(=O)C2C3C=CC(C2C1=O)C1C2C(=O)N(C(=O)OCC)C(=O)C2C31` (stereo not given)?
GI50 (NCI-H226): > 100 µM (inactive); GI50 (SF-539): > 100 µM (inactive); GI50 (EKVX): > 100 µM (inactive); GI50 (OVCAR-5): > 100 µM (inactive); GI50 (IGROV-1): > 100 µM (inactive); GI50 (COLO 205): 98.9 µM (inactive); GI50 (M14): > 100 µM (inactive); GI50 (MOLT-4): > 100 µM (inactive); GI50 (SNB-75): > 92 µM (inactive); GI50 (KM12): > 100 µM (inactive); GI50 (SK-MEL-5): > 100 µM (inactive); GI50 (ACHN): > 100 µM (inactive); GI50 (K562): > 100 µM (inactive); GI50 (HOP-92): > 100 µM (inactive); GI50 (CCRF-CEM): > 93.1 µM (inactive); GI50 (KM-20L2): > 77.1 µM (inactive); GI50 (SK-OV-3): > 100 µM (inactive); GI50 (SN12C): > 100 µM (inactive); GI50 (RPMI-8226): > 100 µM (inactive); GI50 (NCI-H23): > 100 µM (inactive); GI50 (M19-MEL): > 74.5 µM (inactive); GI50 (SW-620): > 41 µM (inactive); GI50 (LXFL 529): > 100 µM (inactive); GI50 (OVCAR-8): > 100 µM (inactive); GI50 (HOP-62): > 100 µM (inactive); GI50 (RXF 631): > 100 µM (inactive); GI50 (SF-268): > 81.3 µM (inactive); GI50 (HCT-15): > 47.2 µM; GI50 (RXF 393): > 100 µM (inactive); GI50 (UO-31): > 100 µM (inactive); GI50 (TK-10): > 100 µM (inactive); GI50 (DMS-273): > 43.7 µM (inactive); GI50 (SNB-78): > 100 µM (inactive); GI50 (LOX IMVI): > 46.6 µM (inactive); GI50 (DLD-1): > 87.3 µM (inactive); GI50 (HCT-116): > 39.5 µM (inactive); GI50 (A498): > 100 µM (inactive); GI50 (SF-295): > 100 µM (inactive); GI50 (CAKI-1): > 100 µM (inactive); GI50 (UACC-257): > 100 µM (inactive); GI50 (NCI-H522): > 100 µM (inactive); GI50 (SNB-19): > 100 µM (inactive); GI50 (NCI-H460): > 42.7 µM (inactive); GI50 (HL-60): 20.3 µM (inactive); GI50 (OVCAR-4): > 100 µM (inactive); GI50 (OVCAR-3): > 100 µM (inactive); GI50 (UACC-62): > 100 µM (inactive); GI50 (SK-MEL-2): > 100 µM (inactive); GI50 (HT-29): > 100 µM (inactive); GI50 (Malme-3M): > 100 µM (inactive); GI50 (U-251): > 68.1 µM (inactive); GI50 (786-0): > 83 µM (inactive); GI50 (DMS-114): > 45.9 µM (inactive); GI50 (A549): > 100 µM (inactive); GI50 (HCC 2998): > 100 µM (inactive); GI50 (SK-MEL-28): > 100 µM (inactive); GI50 (XF498): > 100 µM (inactive); GI50 (HOP-18): 43.4 µM (inactive)
